Test results reported in patent US10150760B2, “Compounds for use in preparing heterocyclic triazole agonists of the APJ receptor” (AMGEN INC., priority 2016, dated 2018).
pEC50: −log10 of the molar value.

target: human APJ receptor (Homo sapiens (Human), UniProt P35414); assay: [35S]GTPγS binding assay on membranes from CHO cells stably expressing human APJ receptor; type: biochemical; conditions: read-out: Activity hAPJ SPA EC50 IP
Summary of the method: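 Membranes from CHO cells stably expressing human APJ incubated with ligand, 0.2 nM [35S]GTPγS and WGA SPA beads in HEPES pH 7.5 with 5 mM MgCl2, 200 mM NaCl, 3 μM GDP, 90 min at RT. Nonspecific binding defined with 100 μM GTPγS; EC50 by non-linear regression.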

Chain of human APJ receptor (P35414 whole entry): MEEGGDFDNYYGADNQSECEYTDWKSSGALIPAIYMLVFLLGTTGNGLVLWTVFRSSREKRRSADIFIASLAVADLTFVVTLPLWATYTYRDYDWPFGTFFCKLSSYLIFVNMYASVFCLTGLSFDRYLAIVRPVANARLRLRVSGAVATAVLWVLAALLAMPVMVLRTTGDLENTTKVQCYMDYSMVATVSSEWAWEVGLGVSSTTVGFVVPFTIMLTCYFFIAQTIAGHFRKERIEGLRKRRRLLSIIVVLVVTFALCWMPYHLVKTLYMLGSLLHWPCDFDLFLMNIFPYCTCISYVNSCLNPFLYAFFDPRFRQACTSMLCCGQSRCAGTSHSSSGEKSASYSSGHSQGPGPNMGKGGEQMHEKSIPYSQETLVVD

Question: COc1cccc(OC)c1-n1c(NS(=O)(=O)[C@@H](C)[C@@H](OC(C)C)c2ncc(Cl)cn2)nnc1[C@H]1CCOC1 (single isomer, unassigned) [Example 282.0, (1S,2S)-1-(5-chloropyrimidin-2-yl)-N-(4-(2,6-dimethoxyphenyl)-5-((R)-tetrahydrofuran-3-yl)-4H-1,2,4-triazol-3-yl)-1-isopropoxypropane-2-sulfonamide or (1S,25)-1-(5-chloropyrimidin-2-yl)-N-(4-(2,6-dimethoxyphenyl)-5-((S)-tetrahydrofuran-3-yl)-4H-1,2,4-triazol-3-yl)-1-isopropoxypropane-2-sulfonamide] was tested. Which pEC50 did it give?
Answer: 8.80

Question: How did the pEC50 turn out when COc1cccc(OC)c1-n1c(NS(=O)(=O)[C@@H](C)[C@@H](OC(C)C)c2ncc(Cl)cn2)nnc1[C@@H]1COCCO1 (single isomer, unassigned) [Example 283.0, (1S,2S)-1-(5-chloropyrimidin-2-yl)-N-(4-(2,6-dimethoxyphenyl)-5-((R)-1,4-dioxan-2-yl)-4H-1,2,4-triazol-3-yl)-1-isopropoxypropane-2-sulfonamide or (1S,2S)-1-(5-chloropyrimidin-2-yl)-N-(4-(2,6-dimethoxyphenyl)-5-((S)-1,4-dioxan-2-yl)-4H-1,2,4-triazol-3-yl)-1-isopropoxypropane-2-sulfonamide] was run?
Answer: 9.20

Question: With COCC1(n2c(NS(=O)(=O)[C@@H](C)[C@H](OC)c3ncc(Cl)cn3)nnc2[C@H]2CC[C@@H](C)O2)CC1 (single isomer, unassigned) [Example 285.0, (1R,2S)-1-(5-chloropyrimidin-2-yl)-1-methoxy-N-(4-(1-(methoxymethyl)cyclopropyl)-5-((2S,5S)-5-methyltetrahydrofuran-2-yl)-4H-1,2,4-triazol-3-yl)propane-2-sulfonamide or (1R,2S)-1-(5-chloropyrimidin-2-yl)-1-methoxy-N-(4-(1-(methoxymethyl)cyclopropyl)-5-((2R,5R)-5-methyltetrahydrofuran-2-yl)-4H-1,2,4-triazol-3-yl)propane-2-sulfonamide] as the molecule, how does the pEC50 read?
Answer: 7.19

Question: With COCC1(n2c(NS(=O)(=O)[C@@H](C)[C@H](OC)c3ncc(Cl)cn3)nnc2[C@H]2CC[C@@H](C)O2)CC1 (single isomer, unassigned) [Example 286.0, (1R,2S)-1-(5-chloropyrimidin-2-yl)-1-methoxy-N-(4-(1-(methoxymethyl)cyclopropyl)-5-((2S,5S)-5-methyltetrahydrofuran-2-yl)-4H-1,2,4-triazol-3-yl)propane-2-sulfonamide or (1R,2S)-1-(5-chloropyrimidin-2-yl)-1-methoxy-N-(4-(1-(methoxymethyl)cyclopropyl)-5-((2R,5R)-5-methyltetrahydrofuran-2-yl)-4H-1,2,4-triazol-3-yl)propane-2-sulfonamide] as the molecule, how does the pEC50 read?
Answer: 8.85

Question: With COCCn1c(NS(=O)(=O)[C@@H](C)[C@H](OC)c2ncc(Cl)cn2)nnc1[C@H]1CCC(C)(C)O1 (single isomer, unassigned) [Example 287.0, (1R,2S)-1-(5-chloropyrimidin-2-yl)-N-(5-((R)-5,5-dimethyltetrahydrofuran-2-yl)-4-(2-methoxyethyl)-4H-1,2,4-triazol-3-yl)-1-methoxypropane-2-sulfonamide or (1R,2S)-1-(5-chloropyrimidin-2-yl)-N-(5-((S)-5,5-dimethyltetrahydrofuran-2-yl)-4-(2-methoxyethyl)-4H-1,2,4-triazol-3-yl)-1-methoxypropane-2-sulfonamide] as the molecule, how does the pEC50 read?
Answer: 6.07

Question: With COCCn1c(NS(=O)(=O)[C@@H](C)[C@H](OC)c2ncc(Cl)cn2)nnc1[C@H]1CCC(C)(C)O1 (single isomer, unassigned) [Example 288.0, (1R,2S)-1-(5-chloropyrimidin-2-yl)-N-(5-((R)-5,5-dimethyltetrahydrofuran-2-yl)-4-(2-methoxyethyl)-4H-1,2,4-triazol-3-yl)-1-methoxypropane-2-sulfonamide or (1R,2S)-1-(5-chloropyrimidin-2-yl)-N-(5-((S)-5,5-dimethyltetrahydrofuran-2-yl)-4-(2-methoxyethyl)-4H-1,2,4-triazol-3-yl)-1-methoxypropane-2-sulfonamide] as the molecule, how does the pEC50 read?
Answer: 6.39

Question: COCC1(n2c(NS(=O)(=O)[C@@H](C)[C@H](OC)c3ncc(Cl)cn3)nnc2[C@H]2CCC(C)(C)O2)CC1 (single isomer, unassigned) [Example 289.0, (1R,2S)-1-(5-chloropyrimidin-2-yl)-N-(5-((R)-5,5-dimethyltetrahydrofuran-2-yl)-4-(1-(methoxymethypcyclopropyl)-4H-1,2,4-triazol-3-yl)-1-methoxypropane-2-sulfonamide or (1R,2S)-1-(5-chloropyrimidin-2-yl)-N-(5-((S)-5,5-dimethyltetrahydrofuran-2-yl)-4-(1-(methoxymethypcyclopropyl)-4H-1,2,4-triazol-3-yl)-1-methoxypropane-2-sulfonamide] was tested. Which pEC50 did it give?
Answer: 5.96

Question: With COCC1(n2c(NS(=O)(=O)[C@@H](C)[C@H](OC)c3ncc(Cl)cn3)nnc2[C@H]2CCC(C)(C)O2)CC1 (single isomer, unassigned) [Example 290.0, (1R,2S)-1-(5-chloropyrimidin-2-yl)-N-(5-((R)-5,5-dimethyltetrahydrofuran-2-yl)-4-(1-(methoxymethypcyclopropyl)-4H-1,2,4-triazol-3-yl)-1-methoxypropane-2-sulfonamide or (1R,2S)-1-(5-chloropyrimidin-2-yl)-N-(5-((S)-5,5-dimethyltetrahydrofuran-2-yl)-4-(1-(methoxymethyl)cyclopropyl)-4H-1,2,4-triazol-3-yl)-1-methoxypropane-2-sulfonamide] as the molecule, how does the pEC50 read?
Answer: 7.64

Question: How did the pEC50 turn out when COc1ncnc(OC)c1-n1c(NS(=O)(=O)[C@@H](C)[C@@H](OC(C)C)c2ncc(Cl)cn2)nnc1[C@H]1CCOC1 (single isomer, unassigned) [Example 291.0, (1S,2S)-1-(5-chloropyrimidin-2-yl)-N-(4-(4,6-dimethoxypyrimidin-5-yl)-5-((R)-tetrahydrofuran-3-yl)-4H-1,2,4-triazol-3-yl)-1-isopropoxypropane-2-sulfonamide or (1S,2S)-1-(5-chloropyrimidin-2-yl)-N-(4-(4,6-dimethoxypyrimidin-5-yl)-5-((S)-tetrahydrofuran-3-yl)-4H-1,2,4-triazol-3-yl)-1-isopropoxypropane-2-sulfonamide] was run?
Answer: 8.28

Question: COc1ncnc(OC)c1-n1c(NS(=O)(=O)[C@@H](C)[C@@H](OC(C)C)c2ncc(Cl)cn2)nnc1[C@H]1CCOC1 (single isomer, unassigned) [Example 292.0, (1S,2S)-1-(5-chloropyrimidin-2-yl)-N-(4-(4,6-dimethoxypyrimidin-5-yl)-5-((R)-tetrahydrofuran-3-yl)-4H-1,2,4-triazol-3-yl)-1-isopropoxypropane-2-sulfonamide or (1S,2S)-1-(5-chloropyrimidin-2-yl)-N-(4-(4,6-dimethoxypyrimidin-5-yl)-5-((S)-tetrahydrofuran-3-yl)-4H-1,2,4-triazol-3-yl)-1-isopropoxypropane-2-sulfonamide] was tested. Which pEC50 did it give?
Answer: 7.74

Question: How did the pEC50 turn out when COc1cccc(OC)c1-n1c(NS(=O)(=O)[C@@H](C)[C@H](OC)c2ncc(Cl)cn2)nnc1[C@H]1CC(=O)N(C)C1 (single isomer, unassigned) [Example 293.0, (1R,2S)-1-(5-chloropyrimidin-2-yl)-N-(4-(2,6-dimethoxyphenyl)-5-((R)-1-methyl-5-oxopyrrolidin-3-yl)-4H-1,2,4-triazol-3-yl)-1-methoxypropane-2-sulfonamide or (1R,2S)-1-(5-chloropyrimidin-2-yl)-N-(4-(2,6-dimethoxyphenyl)-5-((S)-1-methyl-5-oxopyrrolidin-3-yl)-4H-1,2,4-triazol-3-yl)-1-methoxypropane-2-sulfonamide] was run?
Answer: 7.00

Question: COc1cccc(OC)c1-n1c(NS(=O)(=O)[C@@H](C)[C@H](OC)c2ncc(Cl)cn2)nnc1[C@@H]1CC(=O)N(C)C1 (single isomer, unassigned) [Example 294.0, (1R,2S)-1-(5-chloropyrimidin-2-yl)-N-(4-(2,6-dimethoxyphenyl)-5-((R)-1-methyl-5-oxopyrrolidin-3-yl)-4H-1,2,4-triazol-3-yl)-1-methoxypropane-2-sulfonamide or (1R,2S)-1-(5-chloropyrimidin-2-yl)-N-(4-(2,6-dimethoxyphenyl)-5-((S)-1-methyl-5-oxopyrrolidin-3-yl)-4H-1,2,4-triazol-3-yl)-1-methoxypropane-2-sulfonamide] was tested. Which pEC50 did it give?
Answer: 6.57

Question: CO[C@H](c1ncc(Cl)cn1)[C@H](C)S(=O)(=O)Nc1nnc([C@H]2CCOC2)n1C(C)C (single isomer, unassigned) [Example 297.0, (1R,2S)-1-(5-chloropyrimidin-2-yl)-N-(4-isopropyl-5-((R)-tetrahydrofuran-3-yl)-4H-1,2,4-triazol-3-yl)-1-methoxypropane-2-sulfonamide or (1R,2S)-1-(5-chloropyrimidin-2-yl)-N-(4-isopropyl-5-((S)-tetrahydrofuran-3-yl)-4H-1,2,4-triazol-3-yl)-1-methoxypropane-2-sulfonamide] was tested. Which pEC50 did it give?
Answer: 5.83

Question: CO[C@H](c1ncc(Cl)cn1)[C@H](C)S(=O)(=O)Nc1nnc([C@H]2CCOC2)n1C(C)C (single isomer, unassigned) [Example 298.0, (1R,2S)-1-(5-chloropyrimidin-2-yl)-N-(4-isopropyl-5-((R)-tetrahydrofuran-3-yl)-4H-1,2,4-triazol-3-yl)-1-methoxypropane-2-sulfonamide or (1R,2S)-1-(5-chloropyrimidin-2-yl)-N-(4-isopropyl-5-((S)-tetrahydrofuran-3-yl)-4H-1,2,4-triazol-3-yl)-1-methoxypropane-2-sulfonamide] was tested. Which pEC50 did it give?
Answer: 5.72

Question: CO[C@H](c1ncc(Cl)cn1)[C@H](C)S(=O)(=O)Nc1nnc([C@H]2CCC(C)(C)O2)n1C(C)C (single isomer, unassigned) [Example 299.0, (1R,2S)-1-(5-chloropyrimidin-2-yl)-N-(5-((R)-5,5-dimethyltetrahydrofuran-2-yl)-4-isopropyl-4H-1,2,4-triazol-3-yl)-1-methoxypropane-2-sulfonamide or (1R,2S)-1-(5-chloropyrimidin-2-yl)-N-(5-((S)-5,5-dimethyltetrahydrofuran-2-yl)-4-isopropyl-4H-1,2,4-triazol-3-yl)-1-methoxypropane-2-sulfonamide] was tested. Which pEC50 did it give?
Answer: 6.03
